Residues, ends and D or L forms follow the SMILES beside them. *: point of attachment. 5FAM = O=C1OC2(c3ccc(O)cc3Oc3cc(O)ccc32)c2ccc(C(=O)*)cc21; Ahx = NCCCCCC(=O)O; X1 = CNCC*
Assays:
L3MBTL1 3xMBT = target: T1, L3MBTL1 3xMBT (Homo sapiens, UniProt Q9Y468); format: binding; settings: site H4K20me1
T1 sequence (Q9Y468 197-526 isoform Q9Y468-1): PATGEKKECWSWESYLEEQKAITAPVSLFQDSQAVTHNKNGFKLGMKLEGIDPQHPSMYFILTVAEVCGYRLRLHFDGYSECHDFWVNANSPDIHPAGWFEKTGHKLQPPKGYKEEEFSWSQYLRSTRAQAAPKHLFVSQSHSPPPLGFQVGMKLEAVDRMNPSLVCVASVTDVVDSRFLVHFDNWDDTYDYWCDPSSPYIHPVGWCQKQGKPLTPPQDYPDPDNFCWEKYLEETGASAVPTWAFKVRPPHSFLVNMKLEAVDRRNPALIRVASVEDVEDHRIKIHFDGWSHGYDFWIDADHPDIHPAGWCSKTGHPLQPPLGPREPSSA

53BP1 Tudor domain = 53BP1 Tudor domain (Homo sapiens, UniProt Q12888); test: Fluorescence polarization binding of 53BP1 Tudor domain to histone H4 peptides; settings: FP; result in words; methyl-lysine analogue peptide, site H4K20me2
Chain of 53BP1 Tudor domain (Q12888 1484-1603): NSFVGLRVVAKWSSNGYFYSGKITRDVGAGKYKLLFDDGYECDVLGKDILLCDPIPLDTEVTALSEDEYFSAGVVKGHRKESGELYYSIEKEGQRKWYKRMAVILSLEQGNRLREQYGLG

ΔG(KCme) (L3MBTL1 3xMBT; FP, 25 °C, binding free energy, methyl-lysine analogue peptide) | ΔΔG(exp) (L3MBTL1 3xMBT; ΔG(KCme) – ΔG(Kme) from FP Kd) | binding to the methyl-lysine analogue containing target (53BP1 Tudor domain) | Compound
–24.6 ± 0.2 kJ/mol | 1.22 ± 0.072 kcal/mol |  | CC[C@H](C)[C@H](NC(=O)[C@H](CC(N)=O)NC(=O)[C@H](CC(=O)O)NC(=O)[C@H](CCCNC(=N)N)NC(=O)[C@H](CC(C)C)NC(=O)[C@@H](NC(=O)[C@H](CSCCNC)NC(=O)[C@H](CCCNC(=N)N)NC(=O)[C@H](Cc1c[nH]cn1)NC(=O)[C@H](CCCNC(=N)N)NC(=O)[C@H](CCCCN)NC(=O)[C@H](C)NC(=O)CNC(=O)CNC(=O)[C@H](CCCCN)NC(=O)CCCCCNC(=O)c1ccc2c(c1)C(=O)OC21c2ccc(O)cc2Oc2cc(O)ccc21)C(C)C)C(=O)N[C@@H](CCC(N)=O)C(N)=O [Fl-H4(12–27)KC20me1] ({5FAM-Ahx}-KGGAKRHRC(X1)VLRDNIQ-NH2)
 |  | no binding | fluoresceine-KGGAKRHRKC(me1)VLRDNIQ [Fl-H4(12–27)KC20me2]
